Experimental findings from US20040219158A1, “Compositions and methods for diagnosis and therapy of medical conditions involving infection with pseudomonas bacteria” (priority 2003, published 2004) are described below.

For the assay, the target named is PA-IIL lectin (Pseudomonas aeruginosa, UniProt Q9HYN5). The experiment in a line: Inhibition of binding of HRP-labeled fucosylated polymer (Fuc-PAA-biotin) to immobilized PA-IIL lectin. The procedure:
Biotinylated polymers of Fucose (Fuc-PAA-biotin, GlycoTech Corp.) are allowed to couple HRP-labeled streptavidin (KPL labs) overnight at 4° C. PA-IIL lectin is immobilized in plastic microtiter wells and allowed to react with the HRP-labeled fucosylated polymer. Binding is detected by TMB substrate followed by color development with 1 M H3PO4 (FIG. 20). Conditions chosen for the assay are coating with 3 μg/ml PA-IIL and incubation of inhibitor with 2 μg/ml of fucosylated polymer.

PA-IIL lectin, sequence (Q9HYN5 entry or part of it): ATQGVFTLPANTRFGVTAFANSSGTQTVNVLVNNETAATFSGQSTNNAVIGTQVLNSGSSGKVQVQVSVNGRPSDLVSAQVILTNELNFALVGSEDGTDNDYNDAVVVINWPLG

For `O=C[C@H](O)[C@@H](O)[C@@H](O)[C@H](O)CO` [Galactose], the “inhibition of PA-IIL lectin” value (negative control saccharide, data not shown) is given as “no inhibition”.
The term IC50 denotes the concentration at which inhibition is half-maximal. For `O=C[C@@H](O)[C@@H](O)[C@H](O)[C@H](O)CO` [Mannose], the IC50 turned out to be 95 µM.
